1 compound from patent US11931324B2, “Pharmaceutical composition for prevention or treatment of osteoarthritis comprising obtusifolin, derivative thereof, or pharmaceutically acceptable salt thereof as active ingredient” (KOREA INSTITUTE OF SCIENCE AND TECHNOLOGY, priority 2021, dated 2024) can be followed below.

Data set [1] relates to matrix metalloproteinase 13 (MMP13). Put plainly: MMP13 expression in IL-1β-treated chondrocytes (RT-PCR, qRT-PCR). Type of data set: cell-based, mouse. As for the experimental part:
(§1) Interleukin 1 beta (IL-1β) purchased from GenScript (Piscataway, NJ, USA) was dissolved in purified water. Obtusifolin and celecoxib were purchased from Sigma-Aldrich (St. Louis, MO, USA). Primary chondrocytes of the mice were cultured for 4 days under conditions of a temperature of about 37° C. and about 5% CO2. Afterwards, IL-1β (about 1 ng/mL) and either of obtusifolin or celecoxib were treated and cultured for about 24 hours. Then, the cultured chondrocytes were collected after about 5 days. To confirm the signal transduction pathway regulated by obtusifolin, the chondrocytes were pre-treated with obtusifolin or celecoxib and cultured for about 24 hours. […]
(§2) Chondrocyte RNAs were isolated using Trizol and chloroform. […] Transcription levels were quantified by qRT-PCR (ABI, Beverley, UK; StepOnePlus Real-Time PCR System). […]
(§3) In detail, chondrocytes treated with pro-inflammatory cytokine, IL-1β (about 1 ng/mL), for about 24 hours were treated with obtusifolin (about 0 μM to about 200 μM) or Celecoxib (about 50 μM). Then, in the resulting chondrocytes, the expression levels of matrix metalloproteinase 3 (MMP3), matrix metalloproteinase 13 (MMP13), and cyclooxygenase 2 (COX2) were measured by RT-PCR and qRT-PCR. In addition, the activity level of collagenase and the expression level of prostaglandin (PGE2) were measured. […]
Background: Real-time PCR tracks product formation cycle by cycle.

The subject of data set [2] is matrix metalloproteinase 3 (MMP3). Put plainly: MMP3 expression in IL-1β-treated chondrocytes (RT-PCR, qRT-PCR). The format is cell-based, mouse. As for the experimental part: as §1, §2, §3
The next data set relates to primary chondrocytes. The data set is described as follows: lactate dehydrogenase (LDH) cytotoxicity assay. The format is cell-based, mouse. To be noted: 24 hours, concentration of about 200 μM or less (FIG. 1). On the procedure:
(§4) Mouse chondrocytes isolated from femur and tibial plateau were obtained from ICR mice of 5-days old. Cells were cultured in Dulbecco's Modified Eagle's medium to which about 10% fetal bovine serum and about 1% penicillin/streptomycin, and then grown in an incubator under conditions maintained with about 5% CO2 and a temperature of about 37° C. C57BL/6 mice (male, 10-weeks old, weighing about 18 g to 20 g, and n=5) were purchased from DBL (Chungcheongbuk-do, South Korea). The C57BL/6 mice were housed at a temperature of about 23° C. and exposed to a light-dark cycle of about 12 hours. Food and water were provided regularly. All animal experiments were performed under the approval of the Ajou University Animal Care and Use Committee.
The primary chondrocytes were treated with obtusifolin (0 μM, about 25 μM, about 50 μM, about 100 μM, and about 200 μM) and cultured for about 24 hours. Then, the supernatant of the culture was collected and allowed for a reaction using a LDH-cytotoxicity assay kit (K311-400; BioVision). According to the recommendations provided by the kit manufacturer, values were measured.
In this experimental example, cytotoxicity of obtusifolin was measured using a lactate dehydrogenase-assay to determine whether obtusifolin affected chondrocytes. Detailed experimental methods were described in Reference Example.

The next data set deals with cyclooxygenase 2 (COX2). Put plainly: COX2 expression in IL-1β-treated chondrocytes (RT-PCR, qRT-PCR). Type of data set: cell-based, mouse. On the procedure: as §1, §2, §3
Data set [3] deals with mice that have undergone DMM surgery. Put plainly: cartilage destruction induced by DMM surgery, mouse model, oral administration. Type of data set: in vivo. On the procedure:
as §4
According to a known technique, destabilization of the medial meniscus (DMM) surgery was performed on a mouse of about 10 week old to induce OA. Here, a Sham-operated mouse was used as a control group. […]
A mouse cartilage sample obtained from the mouse undergoing the DMM surgery was fixed about 4% para-formaldehyde followed by dehydration for about 2 weeks in about 0.5 mol/L EDTA (pH 8.0), to decalcify. […] The cartilage destruction was measured by Safranin O staining and scored using an Osteoarthritis Research […] International (OARSI) grading system.
Data values were expressed as mean±SEM after repeated experiments. […] Histological data were quantified based on an ordinal grading system including OARSI grades, subchondral bone plate thickness scores, and osteophyte grades, using non-parametric statistical methods. […]
In detail, the DMM surgery or shame surgery was performed on mice, and after about 4 weeks of the surgery, obtusifolin (about 10 mg/kg, about 50 mg/kg, or about 100 mg/kg) was administered to each mouse every day for 6 weeks. […] The degree of cartilage destruction was analyzed by analyzing images obtained after the staining. In detail, the OARSI grades, the degree of osteophyte formation, and a thickness of the subchondral bone were measured. […]

A further data set deals with p65. The data set is described as follows: p65 phosphorylation (NF-κB signal transduction) in IL-1β-treated chondrocytes, Western blotting and densitometry. The format is cell-based, mouse. As for the experimental part:
as §1, §2
Here, as a loading control group, Erk1/2 was used. Band intensity was quantified by densitometry (AlphaEase FC 4.0; Alpha Innotech).
In detail, the chondrocytes treated with the pro-inflammatory cytokine, IL-1β (about 1 ng/mL), were collected, and the phosphorylation levels of p38, JNK, and p65 were measured through Western blotting. […] The chondrocytes were collected after the culture, and the phosphorylation level of p65 was measured through Western blotting and densitometry. […]
Background: A western blot detects proteins with antibodies after separation by electrophoresis.

The subject of the next data set is prostaglandin E2 (PGE2). The data set is described as follows: PGE2 production in IL-1β-treated chondrocytes (PGE2 Immunoassay Kit). Type of data set: cell-based, mouse. As for the experimental part: (§5) PGE2 production was evaluated using a PGE2 Immunoassay Kit (R & D System, Minneapolis, Minnesota, USA). Primary articular chondrocytes of mouse were seeded in a 96-well plate (about 2×10^4 cells/well). The level of secreted PGE2 in the primary chondrocytes of mouse treated with obtusifolin and IL-1β (about 1 ng/mL) was measured from the […]. By using an EnzCheck Gelatinase/Collagenase Assay kit (Molecular Probes, Carlsbad, CA, USA), total collagenase activity of the articular chondrocytes cultured in a medium conditioned with obtusifolin and IL-1β (about 1 ng/mL) was measured. The collagenase activity was quantified using a VICTOR X3 microplate reader (PerkinElmer, Waltham, MA, USA) at Ex/Em=490/530 nm according to the protocol provided by the manufacturer. […] After culturing the transfected cells in a complete medium for about 24 hours, luciferase activity was evaluated using an analysis kit (Promega, Madison, WI, USA), and the evaluated activity was normalized by β-galactosidase.
(§6) In detail, chondrocytes treated with pro-inflammatory cytokine, IL-1β (about 1 ng/mL), for about 24 hours were treated with obtusifolin (about 0 μM to about 200 μM) or Celecoxib (about 50 μM). Then, in the resulting chondrocytes, the expression levels of matrix metalloproteinase 3 (MMP3), matrix metalloproteinase 13 (MMP13), and cyclooxygenase 2 (COX2) were measured by RT-PCR and qRT-PCR. […]

Another data set concerns collagenase. The data set is described as follows: total collagenase activity of IL-1β-treated chondrocytes (EnzCheck Gelatinase/Collagenase Assay kit). Type of data set: cell-based, mouse. As for the experimental part: as §5, §6
Setting [4] is: chondrocytes treated with IL-1β (about 1 ng/mL), obtusifolin about 0 μM to about 200 μM (FIGS. 2A, 2B).
[5] abbreviates: obtusifolin about 100 μM to about 200 μM vs Celecoxib about 50 μM.
Setting [6] is: chondrocytes treated with IL-1β (about 1 ng/mL), obtusifolin about 0 μM to about 200 μM (FIG. 2C).

As for `COc1c(O)c(C)cc2c1C(=O)c1c(O)cccc1C2=O` [obtusifolin], in data set [1] (setting [4]), the “expression of MMP13” value is “decreased again”. In addition, the “effect of reducing expression of MMP13 compared with Celecoxib” value in data set [1] (setting [5]) was “the same or similar level of effects as Celecoxib”. In addition, in data set [2] (setting [4]), the “expression level of MMP3” value was “decreased in a dose-dependent manner”. In data set [2] (setting [5]), the “effect of reducing expression of MMP3 compared with Celecoxib” value was “the same or similar level of effects as Celecoxib”. Moreover, the cytotoxicity result in the data set on primary chondrocytes was “did not exhibit cytotoxicity”. The “expression level of COX2” value in the data set with cyclooxygenase 2 (COX2) (setting [4]) is “decreased in a dose-dependent manner”. Moreover, in the data set with cyclooxygenase 2 (COX2) (setting [5]), the “effect of reducing expression of COX2 compared with Celecoxib” value is on record as “the same or similar level of effects as Celecoxib”. In data set [3] (DMM surgery mice, oral about 10, 50 or 100 mg/kg every day for 6 weeks (FIG. 5C)), the formation of osteophytes entry is “reduced in a dose-dependent manner”. In addition, in data set [3] (DMM surgery mice, oral about 10, 50 or 100 mg/kg every day for 6 weeks from 4 weeks after surgery (FIG. 5A)), the “degree of cartilage destruction (Safranin O staining)” value is given as “decreased in a dose-dependent manner”. For the same compound, in data set [3] (sham surgery mice, oral about 10, 50 or 100 mg/kg every day for 6 weeks (FIGS. 5A to 5D)), the “effects according to the dose concentration in sham surgery mice” value is recorded as “no difference in the effects”. Also, in the data set with p65 (setting [5]), the “inhibition of phosphorylation of P65 compared with Celecoxib” value is “the same or similar level to that of Celecoxib”. Also, the “phosphorylation of P65” value in the data set on p65 (pre-treated 24 hours with obtusifolin about 0 μM to 200 μM, then IL-1β (about 1 ng/mL) 10 minutes, as concentration increased (FIGS. 3B, 3C)) is listed as “the phosphorylation of P65 was inhibited”. Moreover, the “expression of PGE2” value in the data set on prostaglandin E2 (PGE2) (setting [6]) is reported as “decreased in a dose-dependent manner”. For the same compound, the “effect of reducing expression of PGE2 compared with Celecoxib” value with prostaglandin E2 (PGE2) (setting [5]) was “the same or similar level of effects as Celecoxib”. For the same compound, in the data set with collagenase (setting [6]), the activity of collagenase entry is reported as “decreased in a dose-dependent manner”. The “effect of reducing activity of collagenase compared with Celecoxib” value in the data set with collagenase (setting [5]) was “the same or similar level of effects as Celecoxib”.
